# Reference: patent US7553642B2, “Branched neutral amino acid transporters acting as single molecule” (Human Cell Systems, Inc., priority 2003, dated 2009)
# Assays:
# Assay type in all cases: cell-based
# mouse LAT4 = target: T1, mouse LAT4 (Mus musculus, UniProt Q8CGA3, K402E/P237S); assay: Uptake of radiolabeled amino acids by Xenopus oocytes injected with mouse LAT4 cRNA
# T1 construct: An expression plasmid vector pcDNA 3.1(+) containing cDNA of mouse LAT4 was cleaved by a restriction enzyme XbaI; expressed in transfected cells; host or cells: Xenopus laevis oocytes injected with cRNA (from pcDNA3.1(+), IMAGE clone 2235970)
# Method: The oocytes was injected with 25 ng of cRNA of the mouse LAT4 gene to be expressed thereby, and cultured for 3 days.
# An experiment of leucine uptake was carried out as follows according to the above-described method in Example 3 (1). That is, the oocytes injected with cRNA of the mouse LAT4 gene or water as a control were cultured for 10 minutes in the Na^+-free uptake solution containing […] (100 μM) (refer to Example 3 (1)), and measured the uptake of radioactivity into the cells.
# The leucine uptake was conducted at the leucin concentrations of 0.01, 0.03, 0.1, 0.3, 1, 3 and 10 mM, using the oocytes injected with cRNA of the mouse LAT4 gene according to the above-described method in Example 3 (1). […] In addition, it was clarified that the leucine transport mediated by LAT4 is composed of a high affinity component and a low affinity component, just like the leucin uptake mediated by LAT3.
# An uptake experiment of various amino acids and amino acid analogs was carried out using the oocytes injected with cRNA of the mouse LAT4 gene according to the above-described method in Example 3 (1). In this regard, in place of ^14C-leucine, various radiolabeled amino acids were utilized.
# mouse LAT3 = target: T2, mouse LAT3 (Mus musculus, UniProt Q8BSM7); assay: Leucine uptake by oocytes injected with mouse LAT3 cRNA; conditions: 14C-L-leucine, method of Example 3 (1)
# T2 construct: expressed in transfected cells; host or cells: Xenopus laevis oocytes injected with cRNA (IMAGE clone 4910149)
# Method: The cDNA of mouse LAT3 obtained by Example 2 was cleaved at NotI site, and cRNA was prepared using SP6 RNA polymerase. The cRNA of the mouse LAT3 gene was expressed in the oocytes and the ^14C-L-leucine uptake was measured.
# The oocytes was injected with 25 ng of cRNA of the mouse LAT3 gene to be expressed thereby, and cultured for 3 days. An experiment of the leucine uptake by the oocytes injected with cRNA of the mouse LAT3 gene was carried out according to the method in Example 3 (1).
# human LAT3 [1] = target: T3, human LAT3 (Homo sapiens, UniProt O75387); assay: 14C-leucine efflux from preloaded oocytes injected with human LAT3 cRNA; conditions: preloaded 100 nl of 400 μM 14C-leucine; absence of extracellular leucine; Na+-free; room temperature
# T3 construct: An expression plasmid vector pSPORT1 containing cDNA of human LAT3 was cleaved by a restriction enzyme NotI, and cRNA; expressed in transfected cells; host or cells: Xenopus laevis oocytes injected with cRNA
# T3 sequence (O75387 1-559): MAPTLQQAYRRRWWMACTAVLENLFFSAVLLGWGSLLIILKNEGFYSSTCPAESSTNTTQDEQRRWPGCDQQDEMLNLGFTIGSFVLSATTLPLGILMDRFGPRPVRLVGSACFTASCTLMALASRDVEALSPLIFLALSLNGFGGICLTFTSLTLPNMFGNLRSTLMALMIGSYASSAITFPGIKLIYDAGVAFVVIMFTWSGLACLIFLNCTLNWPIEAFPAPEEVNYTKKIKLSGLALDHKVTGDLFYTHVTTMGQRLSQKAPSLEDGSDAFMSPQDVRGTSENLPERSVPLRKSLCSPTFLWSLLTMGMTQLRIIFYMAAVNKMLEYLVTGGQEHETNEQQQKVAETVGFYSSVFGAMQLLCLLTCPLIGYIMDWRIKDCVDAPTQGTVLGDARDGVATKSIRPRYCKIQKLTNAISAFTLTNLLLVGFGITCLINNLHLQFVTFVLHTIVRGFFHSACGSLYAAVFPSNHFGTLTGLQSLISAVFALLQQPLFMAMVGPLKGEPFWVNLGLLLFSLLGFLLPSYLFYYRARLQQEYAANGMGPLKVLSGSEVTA
# Method: The oocytes injected with cRNA of the human LAT3 gene was injected with 100 nl of 400 μM ^14C-leucine (2 nCi). After washing the oocytes with the leucine-free and Na^+-free uptake solution which was previously cooled with ice, the oocytes were transferred to the Na^+-free uptake solution with or without leucine (1 mM) at room temperature (18 to 22° C.), then efflux of ^14C-leucine was measured. As a control, 100 nl of 400 μM ^14C-leucine (2 nCi) was injected into the oocytes injected with water instead of cRNA of the human LAT3 gene, and the extracellular efflux of ^14C-leucine was measured by the same procedures as described above.
# human LAT3 [2] = target: T3, human LAT3; assay: Uptake of radiolabeled amino acids by Xenopus oocytes injected with human LAT3 cRNA
# Method: The substrate uptake by the injected oocytes using leucine as a substrate was carried out according to the method described by Kanai et al. (Kanai and Hediger, Nature, Vol. 360, 467-471 (1992)), as follows. The oocytes was cultured for 30 minutes in the Na^+-free uptake solution (100 mM of choline chloride, 2 mM of potassium chloride, 1.8 mM of calcium chloride, 1 mM of magnesium chloride, 5 mM of HEPES, pH 7.4) using ^14C-leucine (100 μM) as a substrate, and uptake rate of the substrate was measured by counting radioactivity in the cell.
# The oocytes was injected with 25 ng of human LAT3 gene cRNA to be expressed thereby, and cultured for 3 days.
# The experiment of the leucine uptake was carried out as follows according to the above described method in Example 1 (1). That is, the oocytes injected with the cRNA of the human LAT3 gene or water as a control were cultured for 10 minutes in Na^+-free uptake solution containing ^14C-leucine (100 μM) (refer to Example 1 (1)), and measured uptake of radioactivity into the cells.
# The leucine uptake was conducted at the leucin concentrations of 1, 3, 10, 30, 60, 100, 200, 400, 1000, 2000 and 3000 μM using the oocytes injected with cRNA of the human LAT3 gene according to the above-described method in Example 3 (1). […] In addition, it was clarified that the leucine transport mediated by LAT3 is composed of high affinity component and low affinity component (FIG. 6, inserted figure).
# An uptake experiment of various amino acids and amino acid analogs was carried out using the oocytes injected with cRNA of the human LAT3 gene according to the above-described method in Example 3 (1), provided that various radiolabeled amino acids were utilized in place of the ^14C-leucine.
# human LAT4 = target: T4, human LAT4 (Homo sapiens, UniProt Q8N370); assay: Leucine uptake by oocytes injected with human LAT4 cRNA; conditions: 14C-L-leucine, method of Example 3 (1)
# T4 construct: expressed in transfected cells; host or cells: Xenopus laevis oocytes injected with cRNA (IMAGE clone 2783525)
# Method: The cDNA of human LAT4 gene obtained by Example 4 was cleaved at XhoI site, and the cRNA was prepared using T3 RNA polymerase. The cRNA of the human LAT4 gene was expressed in the oocytes and the ^14C-L-leucine uptake was measured.
# The oocytes was injected with 25 ng of cRNA of the human LAT4 gene, and cultured for […]. Experiment of the leucine uptake by the oocytes injected with cRNA of the human LAT4 gene was carried out according to the method of Example 3 (1).
# [3] = 14C-leucine 100 μM, Na+-free uptake solution, 10 minutes
# T1 sequence (Q8CGA3 whole entry P237S/K402E): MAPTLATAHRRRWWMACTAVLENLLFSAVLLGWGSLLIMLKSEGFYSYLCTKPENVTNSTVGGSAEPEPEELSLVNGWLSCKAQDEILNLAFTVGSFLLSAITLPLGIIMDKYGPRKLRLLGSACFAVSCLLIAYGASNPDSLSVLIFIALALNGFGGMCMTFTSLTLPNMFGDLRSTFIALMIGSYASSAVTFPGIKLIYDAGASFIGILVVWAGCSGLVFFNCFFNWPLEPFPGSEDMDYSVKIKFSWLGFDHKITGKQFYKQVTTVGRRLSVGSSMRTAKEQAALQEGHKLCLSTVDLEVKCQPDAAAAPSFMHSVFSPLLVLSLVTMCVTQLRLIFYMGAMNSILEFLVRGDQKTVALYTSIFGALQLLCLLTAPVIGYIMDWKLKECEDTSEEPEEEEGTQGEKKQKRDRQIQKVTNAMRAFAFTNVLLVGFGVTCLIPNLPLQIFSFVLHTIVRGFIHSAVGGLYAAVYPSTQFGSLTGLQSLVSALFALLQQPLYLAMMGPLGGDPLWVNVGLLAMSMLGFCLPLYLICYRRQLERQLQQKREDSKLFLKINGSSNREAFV
# T2 sequence (Q8BSM7 whole entry): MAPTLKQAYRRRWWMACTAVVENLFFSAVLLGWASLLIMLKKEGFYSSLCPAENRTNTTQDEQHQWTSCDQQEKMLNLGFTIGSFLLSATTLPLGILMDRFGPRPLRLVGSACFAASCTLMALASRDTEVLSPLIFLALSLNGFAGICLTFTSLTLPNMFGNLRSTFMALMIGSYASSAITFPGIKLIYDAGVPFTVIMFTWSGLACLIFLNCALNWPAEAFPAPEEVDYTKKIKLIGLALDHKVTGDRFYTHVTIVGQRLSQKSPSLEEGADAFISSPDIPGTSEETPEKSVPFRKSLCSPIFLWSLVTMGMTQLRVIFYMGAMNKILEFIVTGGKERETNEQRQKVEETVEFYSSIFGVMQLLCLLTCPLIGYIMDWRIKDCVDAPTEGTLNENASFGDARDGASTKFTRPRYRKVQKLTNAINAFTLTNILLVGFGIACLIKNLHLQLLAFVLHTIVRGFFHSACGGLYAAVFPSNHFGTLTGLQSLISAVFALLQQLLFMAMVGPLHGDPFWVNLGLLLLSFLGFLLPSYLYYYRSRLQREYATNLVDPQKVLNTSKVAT
# T4 sequence (Q8N370 1-573 isoform Q8N370-3): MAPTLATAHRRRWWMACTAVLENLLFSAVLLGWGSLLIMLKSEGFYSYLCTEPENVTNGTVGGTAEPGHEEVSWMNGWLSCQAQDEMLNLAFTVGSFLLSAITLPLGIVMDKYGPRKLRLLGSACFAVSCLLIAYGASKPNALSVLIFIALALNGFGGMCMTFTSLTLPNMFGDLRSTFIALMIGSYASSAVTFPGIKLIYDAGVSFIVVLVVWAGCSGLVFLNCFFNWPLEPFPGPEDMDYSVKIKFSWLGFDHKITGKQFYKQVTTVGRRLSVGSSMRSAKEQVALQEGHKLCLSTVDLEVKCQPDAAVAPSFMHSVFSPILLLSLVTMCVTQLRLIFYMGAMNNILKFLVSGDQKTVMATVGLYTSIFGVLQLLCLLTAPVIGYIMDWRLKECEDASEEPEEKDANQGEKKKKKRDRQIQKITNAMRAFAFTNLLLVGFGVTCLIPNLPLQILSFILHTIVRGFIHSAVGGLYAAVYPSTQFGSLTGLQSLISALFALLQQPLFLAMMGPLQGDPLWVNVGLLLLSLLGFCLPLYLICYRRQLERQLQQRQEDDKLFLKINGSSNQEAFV
compound,measurement,setting,value
CC(C)C[C@H](N)C(=O)O [L-leucine],uptake of radiolabeled substrate into oocytes expressing mouse LAT4,mouse LAT4; 14C-labeled substrate in place of 14C-leucine,a large amount of uptake
same,leucine uptake in oocytes expressing mouse LAT4 compared with water-injected,mouse LAT4; [3],significant augmentation
same,concentration dependence of leucine uptake (mouse LAT4),mouse LAT4; leucine 0.01 to 10 mM,concentration-dependent and saturable
same,leucine uptake in oocytes expressing mouse LAT3 compared with water-injected,mouse LAT3,significant augmentation
same,efflux of 14C-leucine from oocytes expressing human LAT3,human LAT3 [1],significant efflux
same,uptake of radiolabeled substrate into oocytes expressing human LAT3,"human LAT3 [2]; 14C-labeled substrate in place of 14C-leucine, Na+-free uptake solution, 10 minutes",a large amount of uptake
same,leucine uptake in oocytes expressing LAT3 compared with water-injected,human LAT3 [2]; [3],significant augmentation
same,concentration dependence of leucine uptake (human LAT3),human LAT3 [2]; leucine 1 to 3000 μM,concentration-dependent and saturable
same,leucine uptake in oocytes expressing human LAT4 compared with water-injected,human LAT4,significant augmentation
